Data taken from patent US20110218188A1, “SUBSTITUTED (PYRIDYL)-AZINYLAMINE DERIVATIVES AS FUNGICIDES” (priority 2008, published 2011).
Marks after values point to notes of the source that are not given here.

Test: Measurement of logP values by HPLC on reversed phase columns (EEC directive 79/831 Annex V.A8)
Assay type: physicochemical

| Structure (SMILES) | logP (pH 2.7) | also measured |
| --- | --- | --- |
| CCCCCCN(CCCCCC)C(=O)c1cc(-c2ncnc(Nc3cccc(Cl)c3)n2)ccn1 [B174] | 6.69 |  |
| COC(=O)c1cc(-c2ncnc(Nc3ccc(OC)c(OC)c3)n2)ccn1 [B422] |  | logP (pH 7.8): 2.02^[c] |
| CCCC(C)NC(=O)c1cc(-c2ncnc(Nc3cccc(SC)c3)n2)ccn1 (centres unmarked) [B221] | 4.44 |  |
| COc1cccc(Nc2ncnc(-c3ccnc(C(=O)N(C)C)c3)n2)c1 [Example B276] | 2.01 |  |
| CN(CCC#N)C(=O)c1cc(-c2ncnc(Nc3cccc(OC(F)F)c3)n2)ccn1 [Example B297] | 2.37 |  |
| O=CN1CCN(C(=O)c2cc(-c3ncnc(Nc4cccc(Cl)c4)n3)ccn2)CC1 [Example B163] | 2.04 |  |
| CCCN(CC1CC1)C(=O)c1cc(-c2ncnc(Nc3cccc(Cl)c3)n2)ccn1 [Example B159] | 3.94 |  |
| COC[C@H]1CCCN1C(=O)c1cc(-c2ncnc(Nc3cccc(Cl)c3)n2)ccn1 [Example B134] | 3.08 |  |
| CN(CCC#N)C(=O)c1cc(-c2ncnc(Nc3ccc(F)c(F)c3)n2)ccn1 [Example B384] | 2.35 |  |
| CC(=NOC(C1CC1)C1CC1)c1cc(-c2ncnc(Nc3cccc(Cl)c3)n2)ccn1 (mixture of isomers) [Example B48] | 5.64 |  |
| O=C(NCCCO)c1cc(-c2ncnc(Nc3cccc(Cl)c3)n2)ccn1 [Example B183] | 2.4 |  |
| Cc1ccc(Nc2nccc(-c3ccnc(C(=O)N(C)C)c3)n2)s1 [Example A48] | 2.13 |  |
| CN(C(=O)c1cc(-c2ncnc(Nc3cccc(Cl)c3)n2)ccn1)C1CCCC1 [Example B149] | 3.51 |  |
| CON(C)C(=O)c1cc(-c2ncnc(Nc3cccc(Cl)c3)n2)ccn1 [Example B186] | 2.59 |  |
| COc1ccc(Nc2ncnc(-c3ccnc(C(=O)N(C)CC4CC4)c3)n2)cn1 [Example C6] | 2.2 |  |
| CC(C)CN(C)C(=O)c1cc(-c2ncnc(Nc3ccc(F)c(Cl)c3)n2)ccn1 [Example B206] | 3.46 |  |
| CCCC#CCON=C(C)c1cc(-c2ncnc(Nc3cccc(Cl)c3)n2)ccn1 (mixture of isomers) [B35] | 5.16 |  |
| CC(C)N(C)C(=O)c1cc(-c2ncnc(Nc3ccc(F)c(F)c3)n2)ccn1 [Example B383] | 2.78 |  |
| CCN(C)C(=S)c1cc(-c2ncnc(Nc3cccc(OC(F)(F)F)c3)n2)ccn1 [Example B271] | 3.57 |  |
| CC(C)CN(C)C(=O)c1cc(-c2ncnc(Nc3cccc(C#N)c3)n2)ccn1 [Example B295] | 2.73 |  |
| COCCN(C)C(=O)c1cc(-c2ncnc(Nc3ccc(F)cc3)n2)ccn1 [Example B22] | 3.92 |  |
| CC(C)=CCN(C)C(=O)c1cc(-c2ncnc(Nc3cccc(Cl)c3)n2)ccn1 [Example B148] | 3.67 |  |
| C=CCON=C(C)c1cc(-c2ncnc(Nc3cccc(Cl)c3)n2)ccn1 (mixture of isomers) [Example B29] | 4.7 |  |
| CCCC#CCON=C(CC)c1cc(-c2ncnc(Nc3cccc(Cl)c3)n2)ccn1 (mixture of isomers) [Example B46] | 5.81 |  |
| CN(CC(F)F)C(=O)c1cc(-c2ncnc(Nc3cccc(OC(F)F)c3)n2)ccn1 [Example B370] | 2.86 |  |
| CCC(=NOCC1CC1)c1cc(-c2ncnc(Nc3cccc(Cl)c3)n2)ccn1 (mixture of isomers) [Example B54] | 5.49 |  |
| CC(C)N(C)C(=O)c1cc(-c2ncnc(Nc3ccc(F)c(Cl)c3)n2)ccn1 [B208] | 3.02 |  |

| Structure (SMILES) | logP (pH 2.7) | also measured |
| --- | --- | --- |
| C=C(C)CN(CC)C(=O)c1cc(-c2ncnc(Nc3cccc(Cl)c3)n2)ccn1 [Example B156] | 3.67 |  |
| O=C(c1cc(-c2ncnc(Nc3cccc(Cl)c3)n2)ccn1)N1CCCCC1CO (centres unmarked) [Example B165] | 2.48 |  |
| NC(=S)c1cc(-c2ncnc(Nc3cccc(C(F)F)c3)n2)ccn1 [B320] | 3.05 |  |
| O=C(O)c1cc(-c2ncnc(Nc3ccsc3)n2)ccn1 [Example C28, 4-[4-(3-thienylamino)-1,3,5-triazin-2-yl]pyridine-2-carboxylic acid] |  | chromatographic logP (pH 2.7): 1.62 |
| C=CCNC(=O)c1cc(-c2ncnc(Nc3cccc(F)c3)n2)ccn1 [B325] | 3.08 |  |
| CCCCN(CCC)C(=O)c1cc(-c2ncnc(Nc3cccc(Cl)c3)n2)ccn1 [Example B126] | 4.31 |  |
| CCN(CC)C(=S)c1cc(-c2ncnc(Nc3cccc(C(F)(F)F)c3)n2)ccn1 [Example B326] | 3.78 |  |
| CC(C)N(C)C(=O)c1cc(-c2ncnc(Nc3cccc(F)c3)n2)ccn1 [Example B8] | 2.67 |  |
| CCN(CC)C(=O)c1cc(-c2ccnc(Nc3ccc(C(C)(C)C)s3)n2)ccn1 [Example A39, 4-{2-[(5-tert-butyl-2-thienyl)amino]pyrimidin-4-yl}-N,N-diethylpyridine-2-carboxamide] |  | chromatographic logP (pH 2.7): 3.62 |
| CN(C)C(=S)c1cc(-c2ncnc(Nc3ccc(F)c(C(F)F)c3)n2)ccn1 [Example B332] | 2.73 |  |
| CN(CC1CC1)C(=O)c1cc(-c2ncnc(Nc3cccc(C(F)(F)F)c3)n2)ccn1 [Example B357] | 3.33 |  |
| COc1cccc(Nc2ncnc(-c3ccnc(C(=O)N(C)CCC#N)c3)n2)c1 [Example B272] | 2.11 |  |
| CC(C)=CCN(C)C(=O)c1cc(-c2ccnc(Nc3ccnc(Cl)c3)n2)ccn1 [Example A30] | 2.66 |  |
| CCCCN(CC)C(=O)c1cc(-c2ncnc(Nc3cccc(Cl)c3)n2)ccn1 [Example B162] | 3.87 |  |
| CCC(COC)NC(=O)c1cc(-c2ncnc(Nc3ccc(C)c(Cl)c3)n2)ccn1 (centres unmarked) [B229] | 4.24 |  |
| COCC(=O)N(c1ccccc1)c1ncnc(-c2ccnc(C(=O)N(C)CC3CC3)c2)n1 [Example B401] | 2.37 |  |
| CN(CC1CC1)C(=O)c1cc(-c2ncnc(Nc3ccccc3)n2)ccn1 [Example B313] | 2.65 |  |
| CC(=O)N(c1ccsc1)c1ncnc(-c2ccnc(C(=O)N(C)CCC#N)c2)n1 [Example C29] | 1.78 |  |
| CN(CCC#N)C(=O)c1cc(-c2ncnc(Nc3cccc(C#N)c3)n2)ccn1 [Example B291] | 1.99 |  |
| CN(CCC#N)C(=O)c1cc(-c2ncnc(Nc3ccc(Cl)c(C(F)F)c3)n2)ccn1 [Example B389] | 2.69 |  |
| Cc1ccc(Nc2ncnc(-c3ccnc(C(=O)N(C)C(C)C)c3)n2)cc1Cl [Example B365] | 3.33 |  |
| CC(=NOC1CCCC1)c1cc(-c2ncnc(Nc3cccc(Cl)c3)n2)ccn1 (mixture of isomers) [Example B38] | 5.79 |  |
| CN(CC1CCCO1)C(=O)c1cc(-c2ccnc(Nc3ccnc(Cl)c3)n2)ccn1 (centres unmarked) [Example A15] | 1.99 |  |
| O=C(NC1CC1)c1cc(-c2ncnc(Nc3ccc(F)c(Cl)c3)n2)ccn1 [Example B192] | 3.31 |  |
| CC(=NNc1ncc(C(F)(F)F)cc1Cl)c1cc(-c2ncnc(Nc3cccc(Cl)c3)n2)ccn1 [B90] | 5.46 |  |
| CCC(=NOCCN(C)C)c1cc(-c2ncnc(Nc3cccc(Cl)c3)n2)ccn1 (mixture of isomers) [B49] | 2.06 |  |
